Measurements: patent US8530426B2, “Cosmetic or dermopharmaceutical composition comprising at least one UDP glucuronosyl transferase (UGT) enzymes inducer” (Sederma SAS, priority 2004, dated 2013)

Columns and labels:
UGT1A1 mRNA = assay: Induction of UGT1A1 mRNA by chrysin, RT-PCR in hepG2 cells; type: cell-based, Human; conditions: 3 days
Experimental: Human hepG2 cells were cultured in an appropriate medium (Williams medium) in the presence or absence of the inductor, chrysin, for 3 days At the end of that period, cell lysis was induced, mRNA extracted and RT-PCR conducted
Quantification of UGT1A1 mRNA: The study was conducted after 3 days of incubation in the presence of chrysin. The values, shown in Table 1, obtained were normalized on the GADPH internal standard and then expressed as percentages relative to the reference.

fibroblasts = assay: PGE2 release post-UVB irradiation, fibroblasts (ELISA); type: cell-based, Human; conditions: for Change in PGE2 release post-UVB irradiation, fibroblasts: UVB 35 mJ/cm2, 24 hours
Experimental: (§1) Human keratinocytes and fibroblasts were cultured in an appropriate medium in the presence of various concentrations of chrysin for 24 hours. The cells were then transferred to a product-free medium and exposed to a pro-inflammatory dose of UVB radiation at a dosage of 35 mJ/cm2 for fibroblasts and 30 mJ/cm2 for keratinocytes. Following irradiation, the cells were then post-incubated either in medium alone or in medium containing various concentrations of chrysin vs. a positive control (acetylsalicylic acid) for 24 hours. PGE2 release into the culture medium after 24 hours was determined using an ELISA method.

Human keratinocytes = assay: PGE2 release post-UVB irradiation, keratinocytes (ELISA); type: cell-based; conditions: for Change in PGE2 release post-UVB irradiation, keratinocytes: UVB 30 mJ/cm2, 24 hours
Experimental: as §1

[1] = positive control, concentration not given

Compound	UGT1A1 Induction (UGT1A1 mRNA; chrysin 7.8 μM)	UGT1A1 mRNA, normalized on GADPH, percentage relative to the reference (UGT1A1 mRNA; chrysin 7.8 μM)	UGT1A1 Induction (UGT1A1 mRNA; chrysin 11.8 μM)	UGT1A1 mRNA, normalized on GADPH, percentage relative to the reference (UGT1A1 mRNA; chrysin 11.8 μM)	increase in UGT1A1 mRNA (in words) (UGT1A1 mRNA; dose effect)	Change in PGE2 release post-UVB irradiation, fibroblasts (fibroblasts; 2 μM)	Change in PGE2 release post-UVB irradiation, fibroblasts (fibroblasts; 3.9 μM)	Change in PGE2 release post-UVB irradiation, fibroblasts (fibroblasts; 7.8 μM)	Change in PGE2 release post-UVB irradiation, fibroblasts (fibroblasts; 11.8 μM)	Change in PGE2 release post-UVB irradiation, keratinocytes (Human keratinocytes; 2 μM)	Change in PGE2 release post-UVB irradiation, keratinocytes (Human keratinocytes; 3.9 μM)	Change in PGE2 release post-UVB irradiation, keratinocytes (Human keratinocytes; 7.8 μM)	Change in PGE2 release post-UVB irradiation, keratinocytes (Human keratinocytes; 11.8 μM)	inhibition of keratinocytic PGE2 (Human keratinocytes; maximum over the chrysin concentrations, without a dose effect)	Change in PGE2 release post-UVB irradiation, fibroblasts (fibroblasts; [1])	inhibition of PGE2, fibroblasts (fibroblasts; [1])	Change in PGE2 release post-UVB irradiation, keratinocytes (Human keratinocytes; [1])	inhibition of PGE2, keratinocytes (Human keratinocytes; [1])
O=c1cc(-c2ccccc2)oc2cc(O)cc(O)c12 [Chrysin, 5,7-dihydroxyflavone]	×2.5	247%	×6	600%	very marked increase	−76%	−85%	−89%	−92%	−75%	−84%	−85%	−86%	up to 85%				
CC(=O)Oc1ccccc1C(=O)O [acetylsalicylic acid, reference compound]															−95%	greater than 90%	−92%	greater than 90%
